One series relates to Staphylococcus aureus. In words: Antimicrobial activity against Staphylococcus aureus after 24 hrs by agar diffusion method. It counts as functional.
A short description of series [1]: Toxicity in Artemia salina assessed as lethality after 24 hrs.
A further series has as its system Chattonella marina. In words: Growth inhibition of Chattonella marina at 100 ug/ml after 12 hrs by light microscopy. It counts as functional.
The subject of a further series is Heterosigma akashiwo. In words: Growth inhibition of Heterosigma akashiwo at 100 ug/ml after 12 hrs by light microscopy. It counts as functional.
In another series the test system is Prorocentrum donghaiense. The series is described as follows: Growth inhibition of Prorocentrum donghaiense at 100 ug/ml after 12 hrs by light microscopy. It counts as functional.
The subject of the next series is Scrippsiella trochoidea. In words: Growth inhibition of Scrippsiella trochoidea at 100 ug/ml after 12 hrs by light microscopy. It counts as functional.
The subject of another series is Colletotrichum lagenaria. The series is described as follows: Antimicrobial activity against Colletotrichum lagenarium after 24 hrs by agar diffusion method. The class given is functional. In general terms: Agar diffusion results depend on both activity and mobility in agar.
For series [2], the system named is Colletotrichum gloeosporioides. In words: Antimicrobial activity against Colletotrichum gloeosporioides after 24 hrs by agar diffusion method. It counts as functional.
The test system of a further series is Escherichia coli. The series is described as follows: Antimicrobial activity against Escherichia coli after 24 hrs by agar diffusion method. It counts as functional.

≈ marks a conversion by molar mass, not a printed value.

Usually MIC stands for the lowest concentration that inhibits growth of the organism. High values mean weaker potency, low ones greater potency. The term LC50 denotes the concentration that kills 50% of the test population. For the molecule `CCCC[C@@H](C)[C@@H]1[C@@H]2C=C[C@H]3[C@H](C)[C@@H](O)[C@@H](O)[C@@H]3[C@]1(C)OC2=O`, it took 12.4 µg/mL (≈ 38.5 µM) to inhibit growth against Staphylococcus aureus (MIC). The LC50 at 24 h in series [1] was determined as 65.6 µg/mL (≈ 203 µM). Moreover, the growth inhibition (GI) in the series with Chattonella marina is 37.2%; in the series with Prorocentrum donghaiense, 14.1%; in the series on Scrippsiella trochoidea, -47.2%. Moreover, in the series with Heterosigma akashiwo (read-out: GI), the inhibition of growth at 100 µg/mL worked out at 23.4%.
Consider `C[C@@H]1[C@H](O)[C@@H](C)/C=C/C=C/C=C/C=C/C=C/C=C/C=C/[C@H](O[C@@H]2O[C@H](C)[C@@H](O)[C@H](N)[C@@H]2O)C[C@@H]2O[C@](O)(C[C@@H](O)C[C@@H](O)[C@H](O)CC[C@@H](O)C[C@@H](O)CC(=O)O[C@H]1C)C[C@H](O)[C@H]2C(=O)O` [AMPHOTERICIN B], for which the MIC (in the series on Colletotrichum lagenaria; in series [2]) was 12.4 µg/mL (≈ 13.4 µM) in each case.
With `O=C(N[C@H](CO)[C@H](O)c1ccc([N+](=O)[O-])cc1)C(Cl)Cl` [CHLORAMPHENICOL], the minimal inhibitory concentration (MIC) with Staphylococcus aureus was 0.8 µg/mL (≈ 2.48 µM); with Escherichia coli, 1.6 µg/mL (≈ 4.95 µM).
With “POTASSIUM DICHROMATE [listing 1 of 2 here]”, the LC50 in series [1] (24 h) stood at 20.8 µg/mL.
As to “POTASSIUM DICHROMATE [listing 2 of 2 here]”, the growth inhibition (GI) in the series with Chattonella marina stood at 74.4%; with Heterosigma akashiwo, 78.4%; with Prorocentrum donghaiense, 71.7%; in the series with Scrippsiella trochoidea it was 71.9%.

The record behind these values is ChEMBL document CHEMBL3853335, “Citrinovirin with a new norditerpene skeleton from the marine algicolous fungus Trichoderma citrinoviride” (Bioorg Med Chem Lett, 2016).
